For the assay, the target named is T1, Human HPK1, catalytic domain (Homo sapiens, UniProt Q92918).
T1 construct: purchased Carna
T1 sequence (Q92918 1-346): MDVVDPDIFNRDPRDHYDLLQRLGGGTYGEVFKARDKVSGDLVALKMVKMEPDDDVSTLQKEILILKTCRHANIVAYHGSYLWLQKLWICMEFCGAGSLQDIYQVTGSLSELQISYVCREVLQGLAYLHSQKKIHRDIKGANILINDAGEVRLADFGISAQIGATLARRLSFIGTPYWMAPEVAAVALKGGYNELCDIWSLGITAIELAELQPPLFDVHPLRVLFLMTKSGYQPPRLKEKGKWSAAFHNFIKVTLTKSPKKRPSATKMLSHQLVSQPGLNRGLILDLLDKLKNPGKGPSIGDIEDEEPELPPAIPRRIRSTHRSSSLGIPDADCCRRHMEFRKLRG
Put plainly: HPK1-SLP76 TR-FRET assay. It counts as biochemical. The note with it: 75 pM HPK1, 10 uM ATP, 10 nM SLP76, 30 min compound pre-incubation. A general note: TR-FRET usually uses a lanthanide donor and a delayed reading to cut background.

For orientation: IC50 means the concentration that inhibits the measured activity by half. A low value points to greater potency in that assay. `COc1cc2c(cc1Nc1ncc(C(N)=O)c(Nc3c(F)cccc3C(C)OC)n1)CN(C)CC2` (racemic) [Example 23-1, (RAC)-4-((2-fluoro-6-(1-methoxyethyl)phenyl)amino)-2-((6-methoxy-2-methyl-1,2,3,4-tetrahydroisoquinolin-7-yl)amino)pyrimidine-5-carboxamide] displayed an IC50 of 0.22 nM.
The value for `Cc1cccc(F)c1Nc1nc(Nc2cnn(C)c2)ncc1C(N)=O` [Example 4-35, 4-[(2-fluoro-6-methylphenyl)amino]-2-[(1-methyl-1H-pyrazol-4-yl)amino]pyrimidine-5-carboxamide] was 158 nM.
`COc1cc2c(cc1Nc1ncc(C(N)=O)c(Nc3cc(C4CC4)nn3C)n1)CN(C)CC2` [Example 7-82, 4-((3-cyclopropyl-1-methyl-1H-pyrazol-5-yl)amino)-2-((6-methoxy-2-methyl-1,2,3,4-tetrahydroisoquinolin-7-yl)amino)pyrimidine-5-carboxamide] had an IC50 of 651 nM.
Take `CN1CCc2cc(F)c(Nc3ncc(C(N)=O)c(NC4CCc5cc(F)c(F)cc54)n3)cc2C1` (stereo not drawn) [Example 26-54, 4-[(5,6-difluoro-2,3-dihydro-1H-inden-1-yl)amino]-2-[(6-fluoro-2-methyl-1,2,3,4-tetrahydroisoquinolin-7-yl)amino]pyrimidine-5-carboxamide]: half-maximal inhibition (IC50) required 0.97 nM.
`COc1cc2c(cc1Nc1ncc(C(N)=O)c(Nc3cc(C(F)(F)F)cc4c3CCNC4)n1)CN(C)CC2` [Example 7-66, 2-[(6-methoxy-2-methyl-1,2,3,4-tetrahydroisoquinolin-7-yl)amino]-4-{[7-(trifluoromethyl)-1,2,3,4-tetrahydroisoquinolin-5-yl]amino}pyrimidine-5-carboxamide] registered an IC50 of 0.15 nM.
For the compound `COc1cc2c(cc1Nc1ncc(C(N)=O)c(NC3CCN(C4CC4)C3)n1)CN(C)CC2` (stereo not drawn) [Example 26-11, 4-[(1-cyclopropylpyrrolidin-3-yl)amino]-2-[(6-methoxy-2-methyl-1,2,3,4-tetrahydroisoquinolin-7-yl)amino]pyrimidine-5-carboxamide], the concentration for half-maximal inhibition (IC50) was 26 nM.
The figure for `COc1cc2c(cc1Nc1ncc(C(N)=O)c(Nc3ccccc3Br)n1)CN(C(C)=O)CC2` [Example 12-2, 2-[(2-acetyl-6-methoxy-1,2,3,4-tetrahydroisoquinolin-7-yl)amino]-4-[(2-bromophenyl)amino]pyrimidine-5-carboxamide] is 244 nM; for `COc1cc2c(cc1Nc1ncc(C(N)=O)c(Nc3ccccc3C[C@H](O)c3ccccc3)n1)CN(C)CC2` [Example 13-9, 4-({2-[(2S)-2-hydroxy-2-phenylethyl]phenyl}amino)-2-[(6-methoxy-2-methyl-1,2,3,4-tetrahydroisoquinolin-7-yl)amino]pyrimidine-5-carboxamide] it is 312 nM.
For the compound `CCC(C)c1ccccc1Nc1nc(Nc2cc3c(cc2OC)CCN(C)C3)ncc1C(N)=O` (stereo not drawn) [Example 7-23, 4-{[2-(butan-2-yl)phenyl]amino}-2-[(6-methoxy-2-methyl-1,2,3,4-tetrahydroisoquinolin-7-yl)amino]pyrimidine-5-carboxamide], half-maximal inhibition (IC50) required 0.17 nM.
`CC(N)c1cccc(Nc2nc(Nc3cc4c(cc3Cl)CCN(C)C4)ncc2C(N)=O)c1` (stereo not drawn) [Example 2-6, 4-{[3-(1-aminoethyl)phenyl]-amino}-2-[(6-chloro-2-methyl-1,2,3,4-tetrahydroisoquinolin-7-yl)amino]pyrimidine-5-carboxamide] came in with an IC50 of 0.54 nM.
`Cc1ccc(C(F)(F)F)cc1Nc1ncc(C(N)=O)c(Nc2cccc3c2CCNC3=O)n1` [Example 25-32, 2-{[2-methyl-5-(trifluoromethyl)phenyl]amino}-4-[(1-oxo-1,2,3,4-tetrahydroisoquinolin-5-yl)amino]pyrimidine-5-carboxamide] registered a half-maximal inhibitory concentration (IC50) of 455 nM.
The figure for `CC(C)N1CCn2nc(Nc3ncc(C(N)=O)c(Nc4cccc5c4CCNC5)n3)cc2CC1=O` [Example 24-1, 2-((6-isopropyl-5-oxo-5,6,7,8-tetrahydro-4H-pyrazolo[1,5-d][1,4]diazepin-2-yl)amino)-4-((1,2,3,4-tetrahydroisoquinolin-5-yl)amino)pyrimidine-5-carboxamide] is 5.05 nM; for `NC(=O)c1cnc(Nc2ccccc2)nc1Nc1ccccc1Br` [Example 7-105, 4-[(2-bromophenyl)amino]-2-(phenylamino)pyrimidine-5-carboxamide] it is 345 nM; for `COc1cc2c(cc1Nc1ncc(C(N)=O)c(Nc3c(F)cc(I)cc3F)n1)CNCC2` [Example 9-12, 4-(2,6-difluoro-4-iodoanilino)-2-[(6-methoxy-1,2,3,4-tetrahydroisoquinolin-7-yl)amino]pyrimidine-5-carboxamide] it is 1.83 nM.
The value for `COc1cc(C2CCNC2)ccc1Nc1ncc(C(N)=O)c(Nc2ccccc2Br)n1` (stereo not drawn) [Example 8-3, 4-((2-bromophenyl)amino)-2-((2-methoxy-4-(pyrrolidin-3-yl)phenyl)amino)pyrimidine-5-carboxamide] was 9.48 nM; that for `NC(=O)c1cnc(NCc2c(Cl)cccc2Cl)nc1Nc1cccc2c1CCNC2=O` [Example 25-24, 2-{[(2,6-dichlorophenyl)methyl]amino}-4-[(1-oxo-1,2,3,4-tetrahydroisoquinolin-5-yl)amino]pyrimidine-5-carboxamide] was 230 nM; that for `NC(=O)c1cnc(Nc2ccccc2OC(F)F)nc1Nc1cccc2c1CCNC2=O` [Example 25-27, 2-{[2-(difluoromethoxy)phenyl]amino}-4-[(1-oxo-1,2,3,4-tetrahydroisoquinolin-5-yl)amino]pyrimidine-5-carboxamide] was 881 nM.
Regarding `COc1cc2c(cc1Nc1ncc(C(N)=O)c(NCc3ccc(C(F)(F)F)cc3)n1)CN(C)CC2` [Example 26-61, 2-[(6-methoxy-2-methyl-1,2,3,4-tetrahydroisoquinolin-7-yl)amino]-4-({[4-(trifluoromethyl)phenyl]methyl}amino)pyrimidine-5-carboxamide], the IC50 amounted to 146 nM.
In the case of `COc1cc2c(cc1Nc1ncc(C(N)=O)c(NCc3cnc4ccccn34)n1)CN(C)CC2` [Example 26-56, 4-{[(imidazo[1,2-a]pyridin-3-yl)methyl]amino}-2-[(6-methoxy-2-methyl-1,2,3,4-tetrahydroisoquinolin-7-yl)amino]pyrimidine-5-carboxamide], it took 777 nM to reach half-maximal inhibition (IC50).
The value for `COc1cc2c(cc1Nc1ncc(C(N)=O)c(N[C@H](CO)C3CCCCC3)n1)CN(C)CC2` [Example 26-48, 4-{[(1S)-1-cyclohexyl-2-hydroxyethyl]amino}-2-[(6-methoxy-2-methyl-1,2,3,4-tetrahydroisoquinolin-7-yl)amino]pyrimidine-5-carboxamide] was 22.8 nM.
The compound `NC(=O)c1cnc(Nc2ccc(F)c(Cl)c2)nc1Nc1cccc2c1CCNC2=O` [Example 25-6, 2-[(3-chloro-4-fluorophenyl)amino]-4-[(1-oxo-1,2,3,4-tetrahydroisoquinolin-5-yl)amino]pyrimidine-S-carboxamide] had an IC50 of 580 nM.
The figure for `NC(=O)c1cnc(Nc2ccc3c(c2)COC3=O)nc1N[C@H](CO)c1ccccc1` [Example 26-44, 4-{[(1S)-2-hydroxy-1-phenylethyl]amino}-2-[(1-oxo-1,3-dihydro-2-benzofuran-5-yl)amino]pyrimidine-5-carboxamide] is 92.1 nM; for `N#CC1(c2ccc(Nc3ncc(C(N)=O)c(Nc4cccc5c4CCNC5)n3)cc2)CC1` [Example 7-15, 2-{[4-(1-cyanocyclopropyl)phenyl]amino}-4-[(1,2,3,4-tetrahydroisoquinolin-5-yl)amino]pyrimidine-5-carboxamide] it is 0.13 nM; for `COc1cc2c(cc1Nc1ncc(C(N)=O)c(Nc3c(C)cccc3F)n1)CN(CC(C)(C)O)CC2` [Example 5-2] it is 2.54 nM.
The figure for `COc1cc2c(cc1Nc1ncc(C(N)=O)c(Nc3c(F)cccc3C(C)O)n1)CN(C)CC2` (racemic) [Example 23-2, (RAC)-4-((2-fluoro-6-(1-hydroxyethyl)phenyl)amino)-2-((6-methoxy-2-methyl-1,2,3,4-tetrahydroisoquinolin-7-yl)amino)pyrimidine-5-carboxamide] is 0.82 nM; for `COc1cc2c(cc1Nc1ncc(C(N)=O)c(Nc3ccccc3CC(F)(F)F)n1)CN(C)CC2` [Example 7-98, 2-[(6-methoxy-2-methyl-1,2,3,4-tetrahydroisoquinolin-7-yl)amino]-4-{[2-(2,2,2-trifluoroethyl)phenyl]amino}pyri-midine-5-carboxamide] it is 0.07 nM; for `COc1cc(N2CCNCC2)ccc1Nc1ncc(C(N)=O)c(Nc2ccccc2Br)n1` [Example 7-10, 4-[(2-bromophenyl)amino]-2-{[2-methoxy-4-(piperazin-1-yl)phenyl]amino}pyrimidine-5-carboxamide] it is 34.2 nM.
The figure for `COc1cc2c(cc1Nc1ncc(C(N)=O)c(Nc3ccccc3Br)n1)CN(C(=O)CC(F)(F)F)CC2` [Example 12-11, 4-[(2-bromophenyl)amino]-2-{[6-methoxy-2-(3,3,3-trifluoropropanoyl)-1,2,3,4-tetrahydroisoquinolin-7-yl]amino}pyrimidine-5-carboxamide] is 11.1 nM.
Take `COc1cc2c(cc1Nc1ncc(C(N)=O)c(Nc3ccc(Br)cc3)n1)CN(C)CC2` [Example 7-72, 4-[(4-bromophenyl)amino]-2-[(6-methoxy-2-methyl-1,2,3,4-tetrahydroisoquinolin-7-yl)amino]pyrimidine-5-carboxamide]: the 50% inhibitory concentration (IC50) came to 1.52 nM.
The value for `COc1cc2c(cc1Nc1ncc(C(N)=O)c(Nc3ccccc3Br)n1)CN(C1CC(C(=O)O)C1)CC2` (stereo not drawn) [Example 9-10, 3-[7-({4-[(2-bromophenyl)amino]-5-carbamoylpyrimidin-2-yl}amino)-6-methoxy-3,4-dihydroisoquinolin-2(1H)-yl]cyclobutane-1-carboxylic acid] was 1.6 nM.

Values taken from US20230416225A1, “DIAMINOPYRIMIDINE CARBOXAMIDE INHIBITORS OF HPK1” (MERCK SHARP & DOHME LLC, priority 2020, published 2023).
